Measurements from US9926304B2, “1-(arylmethyl)quinazoline-2,4(1H,3H)-diones as PARP inhibitors and the use thereof” (Impact Therapeutics, Inc., priority 2011, dated 2018).

Experiments:
[1] = test system: Human breast cancer cell line T47D; assay: Cell based caspase-3 activity assay: potentiation of MMS induced apoptosis; settings: Homo sapiens, T47D, 24 h, T47D cells, 11.1 μg/ml MMS, 24 hours, intracellular caspase-3 activity; read-out: EC50 (nM), potentiation of the apoptosis inducing activity of MMS
How it was run: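 T47D cells were exposed for 24 h to compound plus a minimally apoptotic MMS dose (medium containing 11.1 μg/ml MMS). Lysates were incubated 3 h at 37 °C with (Ac-DEVD)2-R110 caspase-3 substrate (20 μM in added buffer) and read at ex 496/em 520 nm. EC50 came from a sigmoidal fit of RFU versus log concentration.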

[2] = test system: BRCA-2 deficient CAPAN-1 human pancreatic cancer cells; assay: MTT based cell viability assay: growth inhibition of BRCA-2 deficient CAPAN-1 cells; settings: 240 h, compound alone, 10 day assay
Source text: Determination of the cell growth inhibiting activity of 1-(3-(4-(pyrimidin-2-yl)piperazine-1-carbonyl)benzyl)quinazoline-2,4(1H,3H)-dione and analogs on BRCA-2 deficient CAPAN-1 pancreatic duck cancer cells using a MTT based cell viability assay
BRCA-deficient cancer cells are sensitive to PARP inhibition. In the presence of PARP inhibitors, BRCA-deficient cancer cells could not grow and eventually will lead to death of cells. BRCA-2 deficient CAPAN-1 human pancreatic cancer cells were used to test the growth inhibiting activity of substituted 1-(arylmethyl)quinazoline-2,4(1H,3H)-diones. Briefly, CAPAN-1 cells are grown and maintained in IMEM medium supplemented with 20% FBS. The assay takes 10 days to finish. On day 1, 6000 CAPAN-1 cells are seeded to each well of a 96-well plate. The cells are incubated at 37° C. in a cell culture incubator overnight. In the next day, serial dilutions of compounds to be tested and reference compound (AZD2281) were prepared with a 1:3 and 1:10 fashion in DMSO. Ten-fold compound solutions were made by mixing 10 μl DMSO serial dilution solutions with 90 μl fresh growth medium. The cell culture medium was removed and 180 μl fresh media with FBS and 20 μl of compound solutions were added to each well. The final concentration of DMSO was 1%. Cells were then returned to the CO2 cell culture incubator and incubated at 37° C. for two days (day 3 and day 4). On day 5, the same procedure as what was done on day 2 was repeated. Cell culture medium was removed and fresh medium containing serial dilutions of compounds or reference compounds were added. Cells were returned to the CO2 cell culture incubator and incubated for two more days. On day 8, same procedure was repeated again and fresh medium containing the testing compounds or reference compounds were added and incubated for an additional 2 days. On day 10, 20 μl of MTT reagent (5 mg/ml) was added to each well of the cell culture plate and incubated for 4 h. The cell culture media was removed and 100 μl DMSO was added to each well. The 96-well cell culture plates were shaked horizontally for 10 min and readed in a Varioskan Flash plate reader (Thermo Fisher Scientific) at 520 and 690 nm. The obtained 520 nm absorbance readings subtracting corresponding 690 nm reading were analyzed using a commercial graphic software (GraphPad Prism 5) and plotted against the Log scale of the compound concentrations.

[3] = test system: SW620 human colorectal cancer cells; assay: MTT based cell viability assay: potentiation of the growth inhibiting activity of MMS; settings: Homo sapiens, SW-620, 120 h, read-out: IC50 (nM), potentiation of the growth inhibiting activity of MMS, SW620 cells, 1.7 μg/ml MMS, 5 days (120 hours), MTT

Compound | EC50 [1] | IC50 [2] | IC50 [3]
O=C(c1cccs1)N1CCN(C(=O)c2cc(Cn3c(=O)[nH]c(=O)c4c(Cl)cccc43)ccc2F)CC1 [Example 107, 5-Chloro-1-(4-fluoro-3-(4-(thiophene-2-carbonyl)piperazine-1-carbonyl)benzyl)quinazoline-2,4(1H,3H)-dione] | 9.5 nM | 161 nM | 6.3 nM
O=C(c1cccc(Cn2c(=O)[nH]c(=O)c3ccccc32)n1)N1CCN(c2ccccn2)CC1 [Example 70, 1-((2-(4-(Pyridin-2-yl)piperazine-1-carbonyl)pyridin-6-yl)methyl)quinazoline-2,4(1H,3H)-dione] | 34 nM | 339 nM | 136 nM
O=C(c1cccc(Cn2c(=O)[nH]c(=O)c3ccccc32)c1)N1CCN(C(=O)C2CC2)CC1 [Example 15, 1-(3-(4-(Cyclopropylcarbonyl)piperazine-1-carbonyl)benzyl)quinazoline-2,4(1H,3H)-dione] | 803 nM | > 10000 nM | 666 nM
O=C(c1ccc(Cl)c(Cn2c(=O)[nH]c(=O)c3ccccc32)c1)N1CCN(c2ncccn2)CC1 [Example 56, 1-(6-Chloro-3-(4-(pyrimidin-2-yl)piperazine-1-carbonyl)benzyl)quinazoline-2,4(1H,3H)-dione] | 16 nM | 1180 nM | 30 nM
O=C(c1cccc(Cn2c(=O)[nH]c(=O)c3ccccc32)n1)N1CCN(C(=O)C2CCCC2)CC1 [Example 69, 1-((2-(4-(Cyclopentylcarbonyl)piperazine-1-carbonyl)pyridin-6-yl)methyl)quinazoline-2,4(1H,3H)-dione] | 76 nM | 1980 nM | 352 nM
O=C(c1cc(Cn2c(=O)[nH]c(=O)c3ccccc32)ccc1F)N1CCN(C(=O)C2CCCC2)CC1 [Example 23, 1-(3-(4-(Cyclopentylcarbonyl)piperazine-1-carbonyl)-4-fluorobenzyl)quinazoline-2,4(1H,3H)-dione] | 4 nM | 160 nM | 8.2 nM
O=C(c1cccc(Cn2c(=O)[nH]c(=O)c3cc(F)ccc32)n1)N1CCN(c2ncccn2)CC1 [Example 199, 6-Fluoro-1-((2-(4-(pyrimidin-2-yl)piperazine-1-carbonyl)pyridin-6-yl)methyl)quinazoline-2,4(1H,3H)-dione] | 4.9 nM | 948 nM | 19 nM
O=C(c1ccccc1)N1CCN(C(=O)c2cc(Cn3c(=O)[nH]c(=O)c4ccccc43)ccc2F)CC1 [Example 45, 1-(3-(4-Benzoylpiperazine-1-carbonyl)-4-fluorobenzyl)quinazoline-2,4(1H,3H)-dione] | 11 nM | 668 nM | 34 nM
O=C(c1cccc(Cn2c(=O)[nH]c(=O)c3cc(F)ccc32)c1)N1CCN(C(=O)C2CCCC2)CC1 [Example 143, 1-(3-(4-(Cyclopentylcarbonyl)piperazine-1-carbonyl)benzyl)-6-fluoroquinazoline-2,4(1H,3H)-dione] | 6 nM | 73 nM | 15 nM
O=C(c1cccs1)N1CCN(C(=O)c2cc(Cn3c(=O)[nH]c(=O)c4ccccc43)ccc2F)CC1 [Example 46, 1-(4-Fluoro-3-(4-(thiophene-2-carbonyl)piperazine-1-carbonyl)benzyl)quinazoline-2,4(1H,3H)-dione] | 6.6 nM | 446 nM | 21 nM
O=C(c1cccc(Cn2c(=O)[nH]c(=O)c3ccccc32)c1)N1CCN(C(=O)C2CCCCC2)CC1 [Example 26, 1-(3-(4-(Cyclohexylcarbonyl)piperazine-1-carbonyl)benzyl)quinazoline-2,4(1H,3H)-dione] | 20 nM | 400 nM | 149 nM
O=C(c1cc(Cn2c(=O)[nH]c(=O)c3ccccc32)ccc1F)N1CCN(C(=O)C2CCCCC2)CC1 [Example 41, 1-(3-(4-(Cyclohexylcarbonyl)piperazine-1-carbonyl)-4-fluorobenzyl)quinazoline-2,4(1H,3H)-dione] | 2.2 nM | 208 nM | 11 nM
Cc1ccc2c(c1)c(=O)[nH]c(=O)n2Cc1ccc(F)c(C(=O)N2CCN(c3ncccn3)CC2)c1 [Example 83, 1-(4-Fluoro-3-(4-(pyrimidin-2-yl)piperazine-1-carbonyl)benzyl)-6-methylquinazoline-2,4(1H,3H)-dione] | 21 nM | 746 nM | 72 nM
O=C(c1cc(Cn2c(=O)[nH]c(=O)c3c(Cl)cccc32)ccc1F)N1CCN(C(=O)C2CCCC2)CC1 [Example 104, 5-Chloro-1-(3-(4-(cyclopentylcarbonyl)piperazine-1-carbonyl)-4-fluorobenzyl)quinazoline-2,4(1H,3H)-dione] | 2.6 nM | 452 nM | 8.3 nM
O=C(c1cccc(Cn2c(=O)[nH]c(=O)c3c(Cl)cccc32)c1)N1CCN(c2ncccn2)CC1 [Example 100, 5-Chloro-1-(3-(4-(pyrimidin-2-yl)piperazine-1-carbonyl)benzyl)quinazoline-2,4(1H,3H)-dione] | 70 nM | 312 nM | 202 nM
O=C(c1ccc(F)c(Cn2c(=O)[nH]c(=O)c3cc(F)ccc32)c1)N1CCN(C(=O)C2CCCCC2)CC1 [Example 152, 1-(3-(4-(Cyclohexylcarbonyl)piperazine-1-carbonyl)-6-fluorobenzyl)-6-fluoroquinazoline-2,4(1H,3H)-dione] | 5.1 nM | 121 nM | 13 nM
O=C(c1cc(F)cc(Cn2c(=O)[nH]c(=O)c3c(F)cccc32)c1)N1CCN(c2ncccn2)CC1 [Example 176, 5-Fluoro-1-(5-fluoro-3-(4-(pyrimidin-2-yl)piperazine-1-carbonyl)benzyl)quinazoline-2,4(1H,3H)-dione] | 10 nM | 187 nM | 15 nM
O=C(c1cccc(Cn2c(=O)[nH]c(=O)c3cc(F)ccc32)c1)N1CCN(C(=O)C2CCCCC2)CC1 [Example 142, 1-(3-(4-(Cyclohexylcarbonyl)piperazine-1-carbonyl)benzyl)-6-fluoroquinazoline-2,4(1H,3H)-dione] | 3.8 nM | 223 nM | 22 nM
O=C(c1cc(Cn2c(=O)[nH]c(=O)c3c(F)cccc32)ccc1F)N1CCN(C(=O)C2CCCO2)CC1 (stereo not drawn) [Example 210, 5-Fluoro-1-(4-fluoro-3-(4-(tetrahydrofuran-2-carbonyl)piperazine-1-carbonyl)benzyl)quinazoline-2,4(1H,3H)-dione] | 15 nM | 3440 nM | 10 nM
O=C(c1cc(Cn2c(=O)[nH]c(=O)c3ccccc32)ccc1F)N1CCN(c2ccccn2)CC1 [Example 24, 1-(4-Fluoro-3-(4-(pyridin-2-yl)piperazine-1-carbonyl)benzyl)quinazoline-2,4(1H,3H)-dione] | 20 nM | 735 nM | 26 nM
O=C(c1cccc(Cn2c(=O)[nH]c(=O)c3cc(Cl)ccc32)c1)N1CCN(c2ncccn2)CC1 [Example 111, 6-Chloro-1-(3-(4-(pyrimidin-2-yl)piperazine-1-carbonyl)benzyl)quinazoline-2,4(1H,3H)-dione] | 1.7 nM | 77 nM | 27 nM
O=C(c1cc(Cn2c(=O)[nH]c(=O)c3c(F)cccc32)ccc1F)N1CCN(C(=O)C2CCCCC2)CC1 [Example 134, 1-(3-(4-(Cyclohexylcarbonyl)piperazine-1-carbonyl)-4-fluorobenzyl)-5-fluoroquinazoline-2,4(1H,3H)-dione] | 4.7 nM | 45 nM | 5.8 nM
O=C(c1ccc(F)c(Cn2c(=O)[nH]c(=O)c3c(F)cccc32)c1)N1CCN(c2ccccn2)CC1 [Example 155, 5-Fluoro-1-(6-fluoro-3-(4-(pyridin-2-yl)piperazine-1-carbonyl)benzyl)quinazoline-2,4(1H,3H)-dione] | 12 nM | 142 nM | 23 nM
